The target of assay [1] is T1, IDH (endogenous IDH1 R132C) in HT1080 cell (Homo sapiens, UniProt O75874, R132C).
T1 construct: which harbor endogenous heterozygous IDH1 R132C and R132H mutation respectively and accumulate D-2-HG
In words: Cell-based assay for IDH inhibition (decrease of D-2-HG) in HT1080 cells. The conditions noted are these: human fibrosarcoma cell line HT1080, 16 hours treatment, D-2-HG by LC-MS, in triplet. The source says: The present disclosure also provides a cell-based method for assaying IDH inhibition and selectivity of the compounds in human fibrosarcoma cell line HT1080 and cholangiocarcinoma cell line HCCC 9810, which harbor endogenous heterozygous IDH1 R132C and R132H mutation respectively and accumulate D-2-HG. Tumor -derived IDH mutant lost its normal activity of producing α-KG, and gained a new activity of producing D-2-HG. D-2-HG is a metabolite specifically elevated in tumor cells expressing mutant IDH1 or IDH2 proteins. When treating such mutant IDH-expressing tumor cells with an effective IDH inhibitor, the synthesis of D-2-HG is blocked, and D-2-HG concentration is decreased by the oxidation reaction catalyzed by the endogenous D-2-HG dehydrogenase.
To perform a cell-based IDH inhibition assay, HT1080 and HCCC 9810 cells (or other cell lines harboring different IDH mutations) are cultured in DMEM supplemented with 10% FBS. The cells are treated with compounds of present disclosure at various different concentrations. 16 hours after the treatment, culture medium supernatants are removed and cell metabolites are extracted by 40% methanol and 40% acetonitrile in water (pre-chilled under −80° C.) at 4° C. for 1 hour. The extract supernatants are collected and cell debris are removed via high speed centrifugation. The resulting metabolite extracts are analyzed on an Agilent LC-MS system (model: 1290-6470) for 2-HG and glutamate concentration. A HILIC-Z column (2.1 mm×100 mm, […]) is employed on HPLC. Mobile phase A is 15 mM CH3COONH4 and 0.3% NH3·H2O in water. Mobile phase B is 15 mM CH3COONH4 and 0.3% NH3·H2O in 90% MeCN/10% H2O solvent. An 19% solvent A and 81% solvent B isocratic gradient method is used at a flow rate of 0.3 ml/min. D-2-HG is ionized under negative ion spray mode and detected through the multiple-reaction monitoring of a mass transition pair at m/z=147.0/128.9 and 147.0/85.1. Glutamate is ionized under ion spray mode and detected on negative polarity multiple-reaction monitoring of a mass transition pair at m/z=146/102 and 146/128 and its level is used to normalize 2-HG concentration. The activity of cellular mutant IDH proteins in the presence of each test compound at different concentrations can be represented by relative D-2-HG concentration to negative control samples (i.e., cells are treated with DMSO only), and the IC50 value could be determined to evaluate the inhibition and selectivity of each test compound on the IDH enzymatic activity.
The IDH inhibition activity of the compounds were assessed in human fibrosarcoma cell line HIT1080 according to Test 3 of the Biological Assay section. The test for IDH inhibition of each compound was carried out in triplet. As used in Table 6, “A” refers to an IDH inhibitory activity with an IC50<0.1 μM; “B” refers to an IDH inhibitory activity with an IC50 from 0.1 μM to 0.5 μM; “C” refers to an IDH inhibitory activity with an IC50 from 0.5 μM to 1 μM; “D” refers to an IDH inhibitory activity with an IC50>1 μM.

The target in a further assay is T2, IDH1 R132H (Homo sapiens, UniProt O75874, R132H).
T2 construct: 6xHis
T2 sequence (O75874 whole entry R132H): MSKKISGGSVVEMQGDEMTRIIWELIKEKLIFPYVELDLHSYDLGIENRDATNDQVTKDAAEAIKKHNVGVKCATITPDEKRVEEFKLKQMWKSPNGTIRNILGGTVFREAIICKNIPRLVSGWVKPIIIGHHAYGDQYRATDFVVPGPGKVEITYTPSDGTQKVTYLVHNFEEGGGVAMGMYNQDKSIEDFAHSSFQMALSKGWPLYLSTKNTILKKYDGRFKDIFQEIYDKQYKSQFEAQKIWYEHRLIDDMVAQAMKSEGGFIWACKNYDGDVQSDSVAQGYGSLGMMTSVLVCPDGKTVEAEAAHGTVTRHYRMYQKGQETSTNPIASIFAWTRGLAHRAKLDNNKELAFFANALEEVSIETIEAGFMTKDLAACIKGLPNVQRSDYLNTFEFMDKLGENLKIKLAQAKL
In words: Biochemical assay for IDH inhibition (NADPH fluorescence), mutant IDH1 R132H. The conditions noted are these: 50 nM IDH1-R132H, 1 hour pre-incubation, in triplet. The source says:
(§1) The present disclosure provides a biochemical assay method for detecting the IDH inhibition and selectivity of the compounds by detecting IDH enzyme activity directly.
(§2) Wild-type IDH enzymes convert NADP^+ to NADPH when catalyzing the α-KG producing reaction. Mutant IDH enzymes convert NADPH to NADP^+ when catalyzing the D-2-HG producing reaction. So, the activity of wild-type and mutant IDH1/2 could be measured by monitoring NADPH level change as NADPH is fluorescent (Excitation 340 nm, Emission 460 nm). By monitoring the change of NADPH level in the reaction, the enzyme activity could be determined rapidly and efficiently and IC50 of a compound could also be assayed.
(§3) The test compounds are prepared into 50 mM stock solutions in DMSO and stored at −20° C. Each test compound stock is further diluted to obtain a 100× stock solution at a concentration of 400 μM, 200 μM, 100 μM, 50 μM, 25 μM, 12.5 μM, 6.25 μM and 3.125 μM, respectively, for the final use on the day of test (the concentration range of 100× stock solutions might be adjusted to cover the estimated IC50 of a specific test compound).
(§4) Inhibition of Mutant IDH1 (R132H or R132C):
(§5) To assay the enzymatic activity of mutant IDH1 proteins, 25 nM IDH1-R132C or 50 nM IDH1-R132H protein solutions are prepared in 20 mM Tris-HCl pH7.5, 150 mM NaCl, 10 mM MgCl2, 1 mM DTT, 0.05 mg/ml BSA and 1.33 mM α-KG. 148 μL 25 nM IDH1-R132C or 50 nM IDH1-R132H protein solutions are mixed with 2 μL DMSO (vehicle control for test compounds) or an above-mentioned 100× stock solution of a test compound and incubated for 1 hour at room temperature. Extra reactions containing 148 μL no-enzyme solution (20 mM Tris-HCl pH7.5, 150 mM NaCl, 10 mM MgCl2, 1 mM DTT, 0.05 mg/ml BSA and 1.33 mM α-KG) and 2 μL DMSO are also set up as background controls. Then each reaction is initiated by adding 50 μL 80 μM NADPH solution prepared in 20 mM Tris-HCl pH7.5, 150 mM NaCl, 10 mM MgCl2, 1 mM DTT and 0.05 mg/ml BSA. BioTek Synergy H1 Microplate reader (BioTek Instruments Inc., Winooski, U.S.) is employed to monitor the NADPH fluorescence (Excitation 340 nm, Emission 460 nm) every 42 seconds for 15 minutes. NADPH change rate is determined according to the linear phase of the fluorescence-time curve and results from the background control reactions are used as background subtraction to calculate the net NADPH change rates of other reactions. The net NADPH change rates from the vehicle control reactions are used as 100% enzymatic activity and thus the relative enzymatic activity of reactions with test compounds added could be determined. Then a dose-response curve is drawn for each test compound and the corresponding IC50 is calculated. The IC50 value is used to evaluate the inhibition and selectivity of each test compound on the IDH enzymatic activity.
(§6) The IDH inhibition activity of the compounds were assessed according to Test 2 of the Biological Assay section. The test for mutant IDH1 R132H and IDH1 R132C inhibition of each compound was carried out in triplet. As used in Table 5, “A” refers to an inhibitory activity against IDH1 R132H or IDH1 R132C with an IC50<0.1 μM; “B” refers to an inhibitory activity against IDH1 R132H or IDH1 R132C with an IC50 from 0.1 μM to 0.5 μM; “C” refers to an inhibitory activity against IDH1 R132H or IDH1 R132C with an IC50 from 0.5 μM to 1 μM; “D” refers to an inhibitory activity against IDH1 R132H or IDH1 R132C with an IC50>1 μM.

The next assay concerns the target T3, IDH1 R132C (Homo sapiens, UniProt O75874, R132C).
T3 construct: 6xHis
In words: Biochemical assay for IDH inhibition (NADPH fluorescence), mutant IDH1 R132C. The conditions noted are these: 25 nM IDH1-R132C, 1 hour pre-incubation, in triplet.
From the text: as §1, §2, §3, §4, §5, §6

A value given as a limit tells only on which side of the number the result lay.

T3 sequence (O75874 whole entry R132C): as the sequence (O75874 whole entry R132H) above, with H132C counted along it
T1 sequence (O75874 2-414 R132C): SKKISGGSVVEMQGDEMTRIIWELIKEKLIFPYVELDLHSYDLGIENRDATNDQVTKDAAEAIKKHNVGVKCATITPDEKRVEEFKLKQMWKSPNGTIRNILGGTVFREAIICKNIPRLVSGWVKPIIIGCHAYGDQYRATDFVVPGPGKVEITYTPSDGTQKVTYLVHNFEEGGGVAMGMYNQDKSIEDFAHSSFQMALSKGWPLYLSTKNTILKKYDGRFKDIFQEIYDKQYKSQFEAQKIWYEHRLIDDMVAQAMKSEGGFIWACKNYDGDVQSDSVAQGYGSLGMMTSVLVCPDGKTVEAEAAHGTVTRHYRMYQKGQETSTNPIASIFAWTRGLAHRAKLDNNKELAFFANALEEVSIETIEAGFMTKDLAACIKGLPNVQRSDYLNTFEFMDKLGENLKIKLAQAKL

Consider `CCN1Cc2c(ccnc2N[C@@H](C)c2ccc(Oc3ccc4c(cnn4C)c3)c(F)c2)C1=O` [Compound 1, 2-ethyl-4-[[(1S)-1-[3-fluoro-4-(1-methylindazol-5-yl)oxy-phenyl]ethyl]amino]-3H-pyrrolo[3,4-c]pyridin-1-one], for which the IC50 was 500 to 1000 nM in assay [1], 100 to 500 nM at IDH1 R132H and 100 to 500 nM at IDH1 R132C.

As for `CCN1Cc2c(ccnc2N[C@@H](C)c2ccc(Oc3cccc4c3ccn4C)c(F)c2)C1=O` [Compound 2, (S)-2-ethyl-4-((1-(3-fluoro-4-((1-methyl-1H-indol-4-yl)oxy)phenyl)ethyl)amino)-2,3-dihydro-1H-pyrrolo[3,4-c]pyridin-1-one], the IC50 in assay [1] was in the range of 500 to 1000 nM; at IDH1 R132H, 100 to 500 nM; on IDH1 R132C, 100 to 500 nM.

As to `CCN1Cc2c(ccnc2N[C@@H](C)c2ccc(Oc3ccc4c(ccn4C)c3)c(F)c2)C1=O` [Compound 3, (S)-2-ethyl-4-((1-(3-fluoro-4-((1-methyl-1H-indol-5-yl)oxy)phenyl)ethyl)amino)-2,3-dihydro-1H-pyrrolo[3,4-c]pyridin-1-one], the values for the IC50 (in assay [1]; on IDH1 R132H; on IDH1 R132C) were 500 to 1000 nM, 100 to 500 nM and 100 to 500 nM, respectively.

For the compound `CCN1Cc2c(ccnc2N[C@@H](C)c2ccc(Oc3cnn(C)c3)c(F)c2)C1=O` [Compound 4, (S)-2-ethyl-4-((1-(3-fluoro-4-((1-methyl-1H-pyrazol-4-yl)oxy)phenyl)ethyl)amino)-2,3-dihydro-1H-pyrrolo[3,4-c]pyridin-1-one], the half-maximal inhibitory concentration (IC50) (in assay [1]; on IDH1 R132H; on IDH1 R132C) was over 1000 nM in each case.

For `CCN1Cc2c(ccnc2N[C@@H](C)c2ccc(OC3Cc4ccccc4C3)c(F)c2)C1=O` [Compound 5, (S)-4-((1-(4-((2,3-dihydro-1H-inden-2-yl)oxy)-3-fluorophenyl)ethyl)amino)-2-ethyl-2,3-dihydro-1H-pyrrolo[3,4-c]pyridin-1-one], the figures for the IC50 (in assay [1]; on IDH1 R132H; at IDH1 R132C) were over 1000 nM, 500 to 1000 nM and 500 to 1000 nM, respectively.

`CCN1Cc2c(ccnc2N[C@@H](C)c2ccc(OC3CCc4ccccc43)c(F)c2)C1=O` (stereo partly drawn) [Compound 6, 4-(((1S)-1-(4-((2,3-dihydro-1H-inden-1-yl)oxy)-3-fluorophenyl)ethyl)amino)-2-ethyl-2,3-dihydro-1H-pyrrolo[3,4-c]pyridin-1-one]: the IC50 in assay [1] was over 1000 nM; at IDH1 R132H, 500 to 1000 nM; on IDH1 R132C it was over 1000 nM.

In the case of `CCN1Cc2c(ccnc2N[C@@H](C)c2ccc(Oc3ccc(C(C)(C)C)nc3)c(F)c2)C1=O` [Compound 7, (S)-4-((1-(4-((6-(tert-butyl)pyridin-3-yl)oxy)-3-fluorophenyl)ethyl)amino)-2-ethyl-2,3-dihydro-1H-pyrrolo[3,4-c]pyridin-1-one], the IC50 in assay [1] is 500 to 1000 nM; on IDH1 R132H, 100 to 500 nM; on IDH1 R132C it was over 1000 nM.

`CCN1Cc2c(ccnc2N[C@@H](C)c2ccc(Oc3ccc4c(c3)ncn4C)c(F)c2)C1=O` [Compound 8, (S)-2-ethyl-4-((1-(3-fluoro-4-((1-methyl-1H-benzo[d]imidazol-5-yl)oxy)phenyl)ethyl)amino)-2,3-dihydro-1H-pyrrolo[3,4-c]pyridin-1-one]: the IC50 (in assay [1]; at IDH1 R132H; on IDH1 R132C) was over 1000 nM in each case.

As to `CCN1Cc2c(ccnc2N[C@@H](C)c2ccc(Oc3ccc4c(ccn4C(C)C)c3)c(F)c2)C1=O` [Compound 9, (S)-2-ethyl-4-((1-(3-fluoro-4-((1-isopropyl-1H-indol-5-yl)oxy)phenyl)ethyl)amino)-2,3-dihydro-1H-pyrrolo[3,4-c]pyridin-1-one], the IC50 (in assay [1]; on IDH1 R132H; on IDH1 R132C) was 100 to 500 nM in each case.

For the compound `CCN1Cc2c(ccnc2N[C@@H](C)c2ccc(Oc3ccc4c(ccn4CCO)c3)c(F)c2)C1=O` [Compound 10, (S)-2-ethyl-4-((1-(3-fluoro-4-((1-(2-hydroxyethyl)-1H-indol-5-yl)oxy)phenyl)ethyl)amino)-2,3-dihydro-1H-pyrrolo[3,4-c]pyridin-1-one], the concentration for half-maximal inhibition (IC50) is over 1000 nM in assay [1], 500 to 1000 nM on IDH1 R132H and over 1000 nM on IDH1 R132C.

On to `CCN1Cc2c(ccnc2N[C@@H](C)c2ccc(Oc3ccc4c(c3)cc(C)n4C)c(F)c2)C1=O` [Compound 11, (S)-4-((1-(4-((1,2-dimethyl-1H-indol-5-yl)oxy)-3-fluorophenyl)ethyl)amino)-2-ethyl-2,3-dihydro-1H-pyrrolo[3,4-c]pyridin-1-one], for which the half-inhibitory concentration (IC50) was over 1000 nM in assay [1], 100 to 500 nM on IDH1 R132H and 100 to 500 nM at IDH1 R132C.

With `CCN1Cc2c(ccnc2N[C@@H](C)c2ccc(Cc3ccnc(C(F)(F)F)c3)c(F)c2)C1=O` [Compound 53, (S)-2-ethyl-4-((1-(3-fluoro-4-((2-(trifluoromethyl)pyridin-4-yl)methyl)phenyl)ethyl)amino)-2,3-dihydro-1H-pyrrolo[3,4-c]pyridin-1-one], the IC50 at IDH1 R132H and at IDH1 R132C was over 1000 nM each time.

As usually defined, the IC50 is the point on the concentration scale where inhibition reaches its midpoint.

Values taken from patent publication US12441725B2, “ISO-citrate dehydrogenase (IDH) inhibitor” (ZHEJIANG METON PHARMACEUTICAL CO., LTD, priority 2019, dated 2025).
